Tested on: 817829-284-R-J1-PDC multi-cell spheroid viability
Assay: Anticancer human tumor 817829-284-R-J1-PDC patient-derived colon adenocarcinoma cell line growth inhibition [PI3K]
Settings: for IC50: curve of first compound; for viability, T/C: stronger effect = lower value
Outline: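 Complex 3D spheroids (cancer cells + endothelial HUVEC + mesenchymal stem cells); drug pairs of targeted agent x inavolisib/alpelisib/duvelisib/copanlisib; half-log series from ~Cmax, max 10 microM if Cmax unknown; endpoint viability.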
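Further: spheroids exposed to agents for seven days before readout.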
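Wherever viability, T/C is given: percent of vehicle DMSO control viability which is 100%.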

In the case of `C=CC(=O)N1CCN(c2nc(=O)n(-c3c(C)ccnc3C(C)C)c3nc(-c4c(O)cccc4F)c(F)cc23)C(C)C1` (configuration not stated) + Cc1nc(NC(=O)N2CCCC2C(N)=O)sc1-c1ccnc(C(C)(C)C(F)(F)F)c1, the IC50 (second compound 0.0316 µM) is reported as greater than 10 µM, the IC50 (second compound 0.1 µM) is reported as 5.98 µM and the IC50 (second compound 0.316 µM) is reported as 6.17 µM. It also gave an IC50 (second compound 1 µM) of 6.27 µM, an IC50 (second compound 3.16 µM) greater than 10 µM and an IC50 (second compound 10 µM) of 0.0565 µM. The viability, T/C (second compound 0.0316 µM, first compound 0.0316 µM) was 75.1%, the viability, T/C (second compound 0.0316 µM, first compound 0.1 µM) was 75.8% and the viability, T/C (second compound 0.0316 µM, first compound 0.316 µM) was 114%. For the same compound, the viability, T/C (second compound 0.0316 µM, first compound 1 µM) was 77%, the viability, T/C (second compound 0.0316 µM, first compound 3.16 µM) was 91% and the viability, T/C (second compound 0.0316 µM, first compound 10 µM) was 54.7%. The viability, T/C (second compound 0.1 µM, first compound 0.0316 µM) was 68.7%, the viability, T/C (second compound 0.1 µM, first compound 0.1 µM) was 70.2% and the viability, T/C (second compound 0.1 µM, first compound 0.316 µM) was 68.1%. It also gave a viability, T/C (second compound 0.1 µM, first compound 1 µM) of 53.5%, a viability, T/C (second compound 0.1 µM, first compound 3.16 µM) of 91.9% and a viability, T/C (second compound 0.1 µM, first compound 10 µM) of 33.6%. It also gave a viability, T/C (second compound 0.316 µM, first compound 0.0316 µM) of 80.1%, a viability, T/C (second compound 0.316 µM, first compound 0.1 µM) of 63.8% and a viability, T/C (second compound 0.316 µM, first compound 0.316 µM) of 95.7%. The viability, T/C (second compound 0.316 µM, first compound 1 µM) was 55.7%, the viability, T/C (second compound 0.316 µM, first compound 3.16 µM) was 66% and the viability, T/C (second compound 0.316 µM, first compound 10 µM) was 41.2%. It also gave a viability, T/C (second compound 1 µM, first compound 0.0316 µM) of 81.5%, a viability, T/C (second compound 1 µM, first compound 0.1 µM) of 65.3% and a viability, T/C (second compound 1 µM, first compound 0.316 µM) of 84.3%. It also gave a viability, T/C (second compound 1 µM, first compound 1 µM) of 63.1%, a viability, T/C (second compound 1 µM, first compound 3.16 µM) of 92.3% and a viability, T/C (second compound 1 µM, first compound 10 µM) of 31.4%. It also gave a viability, T/C (second compound 3.16 µM, first compound 0.0316 µM) of 71.2%, a viability, T/C (second compound 3.16 µM, first compound 0.1 µM) of 61.8% and a viability, T/C (second compound 3.16 µM, first compound 0.316 µM) of 55.3%. The viability, T/C (second compound 3.16 µM, first compound 1 µM) was 75.8%, the viability, T/C (second compound 3.16 µM, first compound 3.16 µM) was 85.2% and the viability, T/C (second compound 3.16 µM, first compound 10 µM) was 50.9%. For the same compound, the viability, T/C (second compound 10 µM, first compound 0.0316 µM) was 51.5%, the viability, T/C (second compound 10 µM, first compound 0.1 µM) was 49.2% and the viability, T/C (second compound 10 µM, first compound 0.316 µM) was 40.8%. The viability, T/C (second compound 10 µM, first compound 1 µM) was 51.6%, the viability, T/C (second compound 10 µM, first compound 3.16 µM) was 51.1% and the viability, T/C (second compound 10 µM, first compound 10 µM) was 37.4%.

Source: PubChem BioAssay AID1963969 (Molecular Pharmacology Branch, DTP, NCI, 2024)
